Experimental data reported in ChEMBL document CHEMBL3885861, “Open TG-GATES”.

Species on record: Rattus norvegicus
Experiment: Open TG-GATES - Regimen: Daily Repeat
Format: toxicity, organism-based, Sprague-Dawley
Design: regimen Daily Repeat, gender Male, age 6 weeks
Conditions: in vivo, po, route gavage; for APTT / Bas / Eos / Fbg / Hb / Ht / Lym / MCH / MCHC / MCV / Mono / Neu / PT / Plat / RBC / Ret / WBC: tissue Blood; for KIDNEY_L / KIDNEY_R / KIDNEY_TOTAL: tissue Kidney; for LIVER: tissue Liver; for ALP / AST / BUN / CRE / Ca / Cl / DBIL / GLC / IP / K / LDH / Na / PL / RALB / TBIL / TC / TG / TP / gamma-GTP: tissue Plasma
[1] = 0 mg/kg, 72 h, dose level Control, time 3 day
[2] = 0 mg/kg, […], dose level Control, time 7 day
[3] = 0 mg/kg, […], dose level Control, time 14 day
[4] = 0 mg/kg, […], dose level Control, time 28 day
[5] = 100 mg/kg, 72 h, dose level Low, time 3 day
[6] = 100 mg/kg, […], dose level Low, time 7 day
[7] = 100 mg/kg, […], dose level Low, time 14 day
[8] = 100 mg/kg, […], dose level Low, time 28 day

## COc1ccc2[nH]c([S+]([O-])Cc3ncc(C)c(OC)c3C)nc2c1 (configuration not stated) [OMEPRAZOLE]
[1]
  TERMINAL_BW: 237.1 g
  APTT: 19.5 s
  Bas: 0%
  Eos: 1.2%
  Fbg: 210.6 mg/dL
  Hb: 13.1 g/dL
  Ht: 38%
  Lym: 80.8%
  MCH: 21.2 pg
  MCHC: 34.4%
  MCV: 61.6 fL
  Mono: 3%
  Neu: 14.8%
  PT: 12.2 s
  Plat: 128.5 x10_4/uL
  RBC: 616.6 x10_4/ul
  Ret: 5.4%
  WBC: 91.3 x10_2/uL
  KIDNEY_L: 1 g
  KIDNEY_R: 1.1 g
  KIDNEY_TOTAL: 2.1 g
  LIVER: 11.7 g
  ALP: 960.2 IU/L
  AST: 66.4 IU/L
  BUN: 15.2 mg/dL
  CRE: 0.4 mg/dL
  Ca: 10.7 mg/dL
  Cl: 102.2 meq/L
  DBIL: 0.07 mg/dL
  GLC: 233.8 mg/dL
  IP: 7 mg/dL
  K: 3.6 meq/L
  LDH: 162.8 IU/L
  Na: 141.6 meq/L
  PL: 144.4 mg/dL
  RALB: 3.3 g/dL
  TBIL: 0.1 mg/dL
  TC: 72.2 mg/dL
  TG: 91.6 mg/dL
  TP: 5.6 g/dL
  gamma-GTP: 1.2 IU/L
[2]
  TERMINAL_BW: 272.8 g
  APTT: 20.8 s
  Bas: 0%
  Eos: 1%
  Fbg: 226.4 mg/dL
  Hb: 13.9 g/dL
  Ht: 40.3%
  Lym: 79.2%
  MCH: 20.8 pg
  MCHC: 34.5%
  MCV: 60.2 fL
  Mono: 3%
  Neu: 16.2%
  PT: 11.9 s
  Plat: 124.2 x10_4/uL
  RBC: 669.6 x10_4/ul
  Ret: 4.8%
  WBC: 124.1 x10_2/uL
  KIDNEY_L: 1.2 g
  KIDNEY_R: 1.2 g
  KIDNEY_TOTAL: 2.3 g
  LIVER: 13.4 g
  ALP: 908.8 IU/L
  AST: 73.8 IU/L
  BUN: 16.8 mg/dL
  CRE: 0.4 mg/dL
  Ca: 10.8 mg/dL
  Cl: 100.8 meq/L
  DBIL: 0.09 mg/dL
  GLC: 205.2 mg/dL
  IP: 7.3 mg/dL
  K: 3.9 meq/L
  LDH: 225.8 IU/L
  Na: 140 meq/L
  PL: 168.4 mg/dL
  RALB: 3.3 g/dL
  TBIL: 0.1 mg/dL
  TC: 78.8 mg/dL
  TG: 144.6 mg/dL
  TP: 5.7 g/dL
  gamma-GTP: 0.8 IU/L
[3]
  TERMINAL_BW: 317.5 g
  APTT: 19.5 s
  Bas: 0%
  Eos: 1%
  Fbg: 215.4 mg/dL
  Hb: 14.7 g/dL
  Ht: 42.6%
  Lym: 79%
  MCH: 20.8 pg
  MCHC: 34.6%
  MCV: 59.9 fL
  Mono: 2.6%
  Neu: 16.2%
  PT: 12.3 s
  Plat: 123.5 x10_4/uL
  RBC: 711 x10_4/ul
  Ret: 3.9%
  WBC: 94.4 x10_2/uL
  KIDNEY_L: 1.3 g
  KIDNEY_R: 1.3 g
  KIDNEY_TOTAL: 2.5 g
  LIVER: 13.5 g
  ALP: 734.6 IU/L
  AST: 61.4 IU/L
  BUN: 17.2 mg/dL
  CRE: 0.5 mg/dL
  Ca: 10.6 mg/dL
  Cl: 102 meq/L
  DBIL: 0.08 mg/dL
  GLC: 222.6 mg/dL
  IP: 6.5 mg/dL
  K: 3.4 meq/L
  LDH: 171 IU/L
  Na: 139.8 meq/L
  PL: 139.6 mg/dL
  RALB: 3.4 g/dL
  TBIL: 0.1 mg/dL
  TC: 69 mg/dL
  TG: 95.4 mg/dL
  TP: 5.7 g/dL
  gamma-GTP: 1 IU/L
[4]
  TERMINAL_BW: 379.8 g
  APTT: 20.9 s
  Bas: 0%
  Eos: 1%
  Fbg: 228.8 mg/dL
  Hb: 15.6 g/dL
  Ht: 45%
  Lym: 83.2%
  MCH: 19.4 pg
  MCHC: 34.8%
  MCV: 55.9 fL
  Mono: 2%
  Neu: 13%
  PT: 12.4 s
  Plat: 110.6 x10_4/uL
  RBC: 804.8 x10_4/ul
  Ret: 2.2%
  WBC: 102.7 x10_2/uL
  KIDNEY_L: 1.3 g
  KIDNEY_R: 1.3 g
  KIDNEY_TOTAL: 2.6 g
  LIVER: 14.7 g
  ALP: 583 IU/L
  AST: 64.8 IU/L
  BUN: 16.6 mg/dL
  CRE: 0.5 mg/dL
  Ca: 10.7 mg/dL
  Cl: 102.6 meq/L
  DBIL: 0.078 mg/dL
  GLC: 235.4 mg/dL
  IP: 5.8 mg/dL
  K: 3.8 meq/L
  LDH: 142.8 IU/L
  Na: 141.2 meq/L
  PL: 137.8 mg/dL
  RALB: 3.4 g/dL
  TBIL: 0.1 mg/dL
  TC: 67.8 mg/dL
  TG: 104.8 mg/dL
  TP: 6 g/dL
  gamma-GTP: 0.8 IU/L
[5]
  TERMINAL_BW: 240.6 g
  APTT: 19 s
  Bas: 0%
  Eos: 1%
  Fbg: 214.2 mg/dL
  Hb: 13.1 g/dL
  Ht: 38.3%
  Lym: 77%
  MCH: 21 pg
  MCHC: 34.2%
  MCV: 61.4 fL
  Mono: 3.4%
  Neu: 18.6%
  PT: 12.3 s
  Plat: 127.7 x10_4/uL
  RBC: 624 x10_4/ul
  Ret: 5.2%
  WBC: 119.7 x10_2/uL
  KIDNEY_L: 1.1 g
  KIDNEY_R: 1.1 g
  KIDNEY_TOTAL: 2.2 g
  LIVER: 12.4 g
  ALP: 887.8 IU/L
  AST: 67.8 IU/L
  BUN: 15.2 mg/dL
  CRE: 0.3 mg/dL
  Ca: 10.6 mg/dL
  Cl: 101.8 meq/L
  DBIL: 0.08 mg/dL
  GLC: 220.6 mg/dL
  IP: 8.8 mg/dL
  K: 3.8 meq/L
  LDH: 157.2 IU/L
  Na: 141.4 meq/L
  PL: 145 mg/dL
  RALB: 3.4 g/dL
  TBIL: 0.1 mg/dL
  TC: 72.6 mg/dL
  TG: 99.2 mg/dL
  TP: 5.6 g/dL
  gamma-GTP: 1.2 IU/L
[6]
  TERMINAL_BW: 271.5 g
  APTT: 20 s
  Bas: 0%
  Eos: 1%
  Fbg: 221 mg/dL
  Hb: 13.5 g/dL
  Ht: 39.5%
  Lym: 82%
  MCH: 20.7 pg
  MCHC: 34.2%
  MCV: 60.6 fL
  Mono: 3.4%
  Neu: 13.2%
  PT: 12.2 s
  Plat: 132.7 x10_4/uL
  RBC: 652 x10_4/ul
  Ret: 4.7%
  WBC: 114.9 x10_2/uL
  KIDNEY_L: 1.1 g
  KIDNEY_R: 1.1 g
  KIDNEY_TOTAL: 2.2 g
  LIVER: 13.3 g
  ALP: 805 IU/L
  AST: 65 IU/L
  BUN: 15.6 mg/dL
  CRE: 0.4 mg/dL
  Ca: 10.6 mg/dL
  Cl: 101.4 meq/L
  DBIL: 0.066 mg/dL
  GLC: 200.4 mg/dL
  IP: 8.3 mg/dL
  K: 4 meq/L
  LDH: 229.6 IU/L
  Na: 140.8 meq/L
  PL: 150 mg/dL
  RALB: 3.4 g/dL
  TBIL: 0.1 mg/dL
  TC: 77.8 mg/dL
  TG: 85.2 mg/dL
  TP: 5.7 g/dL
  gamma-GTP: 0.8 IU/L
[7]
  TERMINAL_BW: 323 g
  APTT: 20.2 s
  Bas: 0%
  Eos: 0.8%
  Fbg: 208.4 mg/dL
  Hb: 14.2 g/dL
  Ht: 40.8%
  Lym: 82.8%
  MCH: 20.5 pg
  MCHC: 34.7%
  MCV: 59.1 fL
  Mono: 2.2%
  Neu: 13.6%
  PT: 12.1 s
  Plat: 133 x10_4/uL
  RBC: 691 x10_4/ul
  Ret: 4.1%
  WBC: 101.4 x10_2/uL
  KIDNEY_L: 1.3 g
  KIDNEY_R: 1.3 g
  KIDNEY_TOTAL: 2.5 g
  LIVER: 14.7 g
  ALP: 771.6 IU/L
  AST: 66.4 IU/L
  BUN: 15.8 mg/dL
  CRE: 0.5 mg/dL
  Ca: 10.3 mg/dL
  Cl: 101.4 meq/L
  DBIL: 0.074 mg/dL
  GLC: 210.8 mg/dL
  IP: 7.9 mg/dL
  K: 3.7 meq/L
  LDH: 198.2 IU/L
  Na: 140.6 meq/L
  PL: 145.8 mg/dL
  RALB: 3.4 g/dL
  TBIL: 0.1 mg/dL
  TC: 73.4 mg/dL
  TG: 96.8 mg/dL
  TP: 5.8 g/dL
  gamma-GTP: 1 IU/L
[8]
  TERMINAL_BW: 390.5 g
  APTT: 21.2 s
  Bas: 0%
  Eos: 1.2%
  Fbg: 210.4 mg/dL
  Hb: 15.1 g/dL
  Ht: 43.9%
  Lym: 79.6%
  MCH: 18.6 pg
  MCHC: 34.3%
  MCV: 54.3 fL
  Mono: 2.2%
  Neu: 16.6%
  PT: 12.3 s
  Plat: 106.5 x10_4/uL
  RBC: 809.8 x10_4/ul
  Ret: 2.6%
  WBC: 100.5 x10_2/uL
  KIDNEY_L: 1.4 g
  KIDNEY_R: 1.3 g
  KIDNEY_TOTAL: 2.7 g
  LIVER: 16.4 g
  ALP: 538.6 IU/L
  AST: 59.2 IU/L
  BUN: 15.4 mg/dL
  CRE: 0.5 mg/dL
  Ca: 10.5 mg/dL
  Cl: 101.4 meq/L
  DBIL: 0.088 mg/dL
  GLC: 220 mg/dL
  IP: 7.3 mg/dL
  K: 3.6 meq/L
  LDH: 174.8 IU/L
  Na: 141.8 meq/L
  PL: 141 mg/dL
  RALB: 3.6 g/dL
  TBIL: 0.1 mg/dL
  TC: 69.2 mg/dL
  TG: 133 mg/dL
  TP: 6.2 g/dL
